# In patent US6544502B2, “Skin treatment with a water soluble antibiotic dissolved in an electrolyzed water” (Wasatch Pharmaceutical Inc., priority 1992, dated 2003):
# Legend:
# [1] = Solubility of antibiotic (water, lipoid); type: physicochemical
# [2] = Stability of antibiotic in aqueous solution; type: physicochemical; details: hydrate salt in water
substance,measurement,setting,value
Doxycycline hyclate,lipoid solubility,[1],high degree of lipoid solubility
same,solubility in water,[1],readily soluble in water
same,stability of water soluble salt,[2],no pH sensitivity or breakdown into the inactive ingredients
